What was measured:
Assay in all cases: Test B pre-/postemergence plant response
Format in all cases: in vivo
[1] = system: downy bromegrass (Bromus tectorum)
Procedure, shortened: (§1)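 Greenhouse herbicide screen. Pre- and postemergence (1- to 4-leaf) spray of compound in solvent/surfactant mixture; loam–sand soil for pre, peat/vermiculite medium for post. Visual control rating 0–100 at 13 to 15 days after treatment.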

[2] = system: wheat (Triticum aestivum)
Procedure, shortened: as §1

[3] = system: large crabgrass (Digitaria sanguinalis)
Procedure, shortened: as §1

soybean (Glycine max) = system: soybean (Glycine max)
Procedure, shortened: as §1

[4] = system: yellow nutsedge (Cyperus esculentus)
Procedure, shortened: as §1

[5] = system: cocklebur (Xanthium strumarium)
Procedure, shortened: as §1

kochia (Kochia scoparia) = system: kochia (Kochia scoparia)
Procedure, shortened: as §1

[6] = system: woolly cupgrass (Eriochloa villosa)
Procedure, shortened: as §1

[7] = system: Italian ryegrass (Lolium multiflorum)
Procedure, shortened: as §1

[8] = system: velvetleaf (Abutilon theophrasti)
Procedure, shortened: as §1

[9] = system: bermudagrass (Cynodon dactylon)
Procedure, shortened: as §1

[10] = system: morningglory (Ipomoea coccinea)
Procedure, shortened: as §1

[11] = 31 g ai/ha, postemergence, scale 0 to 100, 0 is no effect, 100 is complete control
[12] = 62 g ai/ha, postemergence, 0 is no effect, 100 is complete control, 13 to 15 days
[13] = Postemergence, 125 g ai/ha, scale 0 to 100 (0 no effect, 100 complete control)
[14] = Postemergence, 250 g ai/ha, scale 0 to 100 (0 no effect, 100 complete control)
[15] = Preemergence, 31 g ai/ha, scale 0 to 100 (0 no effect, 100 complete control)
[16] = Preemergence, 62 g ai/ha, scale 0 to 100 (0 no effect, 100 complete control)
[17] = Preemergence, 125 g ai/ha, scale 0 to 100, 0 no effect, 100 complete control
[18] = Preemergence, 250 g ai/ha, 0 to 100 scale

SMILES: COCCn1c(-c2cc(F)cc(F)c2)ncc(C(=O)C2=C(O)CCCC2=O)c1=O [Compound 119]
- Plant response rating, Bromegrass, Downy [1, 11]: 10
- Bromegrass, Downy plant response rating (0 to 100 scale) [1, 12]: 30
- Plant response rating, Bromegrass, Downy [1, 13]: 60
- Plant response rating, Bromegrass, Downy [1, 14]: 85
- Plant response rating, Bromegrass, Downy [1, 15]: 0
- Plant response rating, Bromegrass, Downy [1, 16]: 50
- Plant response rating, Bromegrass, Downy [1, 17]: 55
- Bromegrass, Downy plant response rating [1, 18]: 55
- Wheat plant response rating (0 to 100 scale) [2, 12]: 40
- Plant response rating, Wheat [2, 13]: 60
- Plant response rating, Wheat [2, 15]: 0
- Plant response rating, Wheat [2, 16]: 0
- Plant response rating, Wheat [2, 17]: 30
- Wheat plant response rating [2, 18]: 50
- Plant response rating, Crabgrass, Large [3, 11]: 75
- Crabgrass, Large plant response rating (0 to 100 scale) [3, 12]: 85
- Plant response rating, Crabgrass, Large [3, 13]: 95
- Plant response rating, Crabgrass, Large [3, 14]: 95
- Plant response rating, Crabgrass, Large [3, 15]: 100
- Plant response rating, Crabgrass, Large [3, 16]: 100
- Plant response rating, Crabgrass, Large [3, 17]: 100
- Crabgrass, Large plant response rating [3, 18]: 100
- Soybean plant response rating (0 to 100 scale) (soybean (Glycine max); [12]): 50
- Plant response rating, Soybean (soybean (Glycine max); [13]): 60
- Plant response rating, Soybean (soybean (Glycine max); [14]): 80
- Plant response rating, Soybean (soybean (Glycine max); [15]): 10
- Plant response rating, Soybean (soybean (Glycine max); [16]): 55
- Plant response rating, Soybean (soybean (Glycine max); [17]): 80
- Soybean plant response rating (soybean (Glycine max); [18]): 80
- Plant response rating, Nutsedge, Yellow [4, 11]: 10
- Nutsedge, Yellow plant response rating (0 to 100 scale) [4, 12]: 50
- Plant response rating, Nutsedge, Yellow [4, 13]: 65
- Plant response rating, Nutsedge, Yellow [4, 14]: 75
- Plant response rating, Nutsedge, Yellow [4, 15]: 75
- Plant response rating, Nutsedge, Yellow [4, 16]: 95
- Plant response rating, Nutsedge, Yellow [4, 17]: 98
- Nutsedge, Yellow plant response rating [4, 18]: 98
- Plant response rating, Cocklebur [5, 11]: 0
- Cocklebur plant response rating (0 to 100 scale) [5, 12]: 10
- Plant response rating, Cocklebur [5, 13]: 80
- Plant response rating, Cocklebur [5, 14]: 95
- Plant response rating, Cocklebur [5, 15]: 0
- Plant response rating, Cocklebur [5, 17]: 70
- Cocklebur plant response rating [5, 18]: 85
- Plant response rating, Kochia (kochia (Kochia scoparia); [11]): 40
- Kochia plant response rating (0 to 100 scale) (kochia (Kochia scoparia); [12]): 75
- Plant response rating, Kochia (kochia (Kochia scoparia); [13]): 95
- Plant response rating, Kochia (kochia (Kochia scoparia); [14]): 100
- Plant response rating, Kochia (kochia (Kochia scoparia); [15]): 0
- Plant response rating, Kochia (kochia (Kochia scoparia); [16]): 0
- Plant response rating, Kochia (kochia (Kochia scoparia); [17]): 55
- Kochia plant response rating (kochia (Kochia scoparia); [18]): 98
- Plant response rating, Cupgrass, Woolly [6, 11]: 75
- Cupgrass, Woolly plant response rating (0 to 100 scale) [6, 12]: 98
- Plant response rating, Cupgrass, Woolly [6, 13]: 98
- Plant response rating, Cupgrass, Woolly [6, 14]: 100
- Plant response rating, Cupgrass, Woolly [6, 15]: 65
- Plant response rating, Cupgrass, Woolly [6, 16]: 75
- Plant response rating, Cupgrass, Woolly [6, 17]: 95
- Cupgrass, Woolly plant response rating [6, 18]: 100
- Ryegrass, Italian plant response rating (0 to 100 scale) [7, 12]: 30
- Plant response rating, Ryegrass, Italian [7, 13]: 60
- Plant response rating, Ryegrass, Italian [7, 14]: 85
- Plant response rating, Ryegrass, Italian [7, 15]: 100
- Plant response rating, Ryegrass, Italian [7, 16]: 100
- Plant response rating, Ryegrass, Italian [7, 17]: 100
- Ryegrass, Italian plant response rating [7, 18]: 100
- Velvetleaf plant response rating (0 to 100 scale) [8, 12]: 80
- Plant response rating, Velvetleaf [8, 13]: 100
- Plant response rating, Velvetleaf [8, 14]: 100
- Plant response rating, Velvetleaf [8, 15]: 75
- Plant response rating, Velvetleaf [8, 16]: 80
- Plant response rating, Velvetleaf [8, 17]: 100
- Velvetleaf plant response rating [8, 18]: 100
- Plant response rating, Bermudagrass [9, 11]: 75
- Bermudagrass plant response rating (0 to 100 scale) [9, 12]: 98
- Plant response rating, Bermudagrass [9, 13]: 98
- Plant response rating, Bermudagrass [9, 14]: 98
- Plant response rating, Bermudagrass [9, 15]: 100
- Plant response rating, Bermudagrass [9, 16]: 100
- Plant response rating, Bermudagrass [9, 17]: 100
- Bermudagrass plant response rating ([9]; Preemergence, 250 g ai/ha, 0 to 100 scale, 0 no effect, 100 complete control): 100
- Plant response rating, Morningglory [10, 11]: 10
- Morningglory plant response rating (0 to 100 scale) [10, 12]: 60
- Plant response rating, Morningglory [10, 13]: 95
- Plant response rating, Morningglory [10, 14]: 95
- Plant response rating, Morningglory [10, 15]: 60
- Plant response rating, Morningglory [10, 16]: 95
- Plant response rating, Morningglory [10, 17]: 95
- Morningglory plant response rating [10, 18]: 95

From patent US8952024B2, “Herbicidal pyrimidone derivatives” (E I du Pont de Nemours and Company, priority 2009, dated 2015)
